From ChEMBL document CHEMBL2069212, “Identification and in vivo and in vitro characterization of long acting and melanocortin 4 receptor (MC4-R) selective α-melanocyte-stimulating hormone (α-MSH) analogues” (J Med Chem, 2012)
The source made the active and inactive calls. The calls are words filed in the database; no cut-off is given here.

Experiments:
Melanocortin receptor 4 [1] = target: T1, Melanocortin receptor 4 (Homo sapiens, UniProt P32245); test: Agonist activity at human recombinant MC4 receptor expressed in BHK570 cells assessed as induction of […] accumulation in presence of 0.1% human serum albumin; type: functional, cell-based
T1 sequence (P32245 whole entry): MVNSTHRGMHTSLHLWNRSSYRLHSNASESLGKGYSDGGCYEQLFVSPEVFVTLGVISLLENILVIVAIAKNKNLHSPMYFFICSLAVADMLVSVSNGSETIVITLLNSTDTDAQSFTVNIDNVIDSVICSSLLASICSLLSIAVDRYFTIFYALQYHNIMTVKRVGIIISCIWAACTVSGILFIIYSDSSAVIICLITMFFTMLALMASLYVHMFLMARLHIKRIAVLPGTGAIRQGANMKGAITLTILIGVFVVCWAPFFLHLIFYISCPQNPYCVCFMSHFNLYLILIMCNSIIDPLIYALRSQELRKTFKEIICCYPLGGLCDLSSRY

Melanocortin receptor 4 [2] = target: T1, Melanocortin receptor 4; test: Displacement of [125I]-NAD-alpha-MSH from MC4 receptor after 2 hrs by gamma counting in presence of ovalbumin
Rattus norvegicus [3] = test: Antiobesity activity in Sprague-Dawley rat assessed as reduction of food intake at 3 mg/kg, sc qd measured after 7 to 24 hrs relative to control; type: functional; parameters: scale not given: the % may be the effect or the level left; details: route subcutaneous
Rattus norvegicus [4] = test: Antiobesity activity in Sprague-Dawley rat assessed as reduction of food intake at 3 mg/kg, sc qd measured up to 7 hrs relative to control; type: functional; parameters: scale not given: the % may be the effect or the level left; details: route subcutaneous
Melanocortin receptor 5 = Melanocortin receptor 5 (Homo sapiens, UniProt P33032); test: Displacement of [125I]-NAD-alpha-MSH from human recombinant MC3 receptor human MC5 expressed in BHK570 cells after 1 hr in presence of ovalbumin; type: cell-based
Sequence of Melanocortin receptor 5 (P33032 whole entry): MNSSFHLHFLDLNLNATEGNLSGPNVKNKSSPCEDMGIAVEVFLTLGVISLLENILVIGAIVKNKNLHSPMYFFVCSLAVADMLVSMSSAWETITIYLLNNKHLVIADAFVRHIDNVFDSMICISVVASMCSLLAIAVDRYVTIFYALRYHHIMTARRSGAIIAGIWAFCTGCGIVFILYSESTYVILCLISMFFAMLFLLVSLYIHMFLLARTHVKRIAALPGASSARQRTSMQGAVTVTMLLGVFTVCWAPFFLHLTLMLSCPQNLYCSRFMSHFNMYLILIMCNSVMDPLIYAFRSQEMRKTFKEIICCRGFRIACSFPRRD

Rattus norvegicus [5] = test: Antiobesity activity in Sprague-Dawley rat assessed as reduction of food intake at 3 mg/kg, sc qd measured after 24 to 48 hrs relative to control; type: functional; details: route subcutaneous
[6] = Dissociation constant, pKa of the compound; type: physicochemical
Melanocortin receptor 3 = Melanocortin receptor 3 (Homo sapiens, UniProt P41968); test: Displacement of [125I]-NAD-alpha-MSH from human recombinant MC3 receptor expressed in BHK570 cells after 1 hr in presence of ovalbumin; type: cell-based
Sequence of Melanocortin receptor 3 (P41968 whole entry): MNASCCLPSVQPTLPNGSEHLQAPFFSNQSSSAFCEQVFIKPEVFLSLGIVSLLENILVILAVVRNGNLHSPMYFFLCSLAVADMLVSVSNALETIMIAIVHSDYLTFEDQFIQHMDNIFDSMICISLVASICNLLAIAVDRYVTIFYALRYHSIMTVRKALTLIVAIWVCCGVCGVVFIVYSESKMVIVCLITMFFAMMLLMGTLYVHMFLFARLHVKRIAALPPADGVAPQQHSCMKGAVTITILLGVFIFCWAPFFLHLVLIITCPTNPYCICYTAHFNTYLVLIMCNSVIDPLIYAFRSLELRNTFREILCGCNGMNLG

[7] = target: Melanocyte-stimulating hormone receptor (Homo sapiens, UniProt Q01726); test: Displacement of [125I]-NAD-alpha-MSH from human recombinant MC1 receptor expressed in BHK570 cells after 90 mins in presence of ovalbumin; type: cell-based
Sequence of Melanocyte-stimulating hormone receptor (Q01726 whole entry): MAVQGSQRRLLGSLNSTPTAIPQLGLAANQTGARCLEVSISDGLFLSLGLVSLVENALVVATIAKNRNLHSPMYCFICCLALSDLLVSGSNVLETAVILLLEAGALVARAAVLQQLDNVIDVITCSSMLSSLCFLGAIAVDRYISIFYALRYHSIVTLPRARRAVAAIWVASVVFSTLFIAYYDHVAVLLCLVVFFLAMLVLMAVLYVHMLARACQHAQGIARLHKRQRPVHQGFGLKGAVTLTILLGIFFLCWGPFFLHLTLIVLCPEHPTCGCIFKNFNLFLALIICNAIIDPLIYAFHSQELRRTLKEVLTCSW

[8] = target: Melanocortin receptor 4 (Rattus norvegicus) (UniProt P70596); test: Agonist activity at rat MC4 receptor; type: functional
Sequence of Melanocortin receptor 4 (Rattus norvegicus) (P70596 whole entry): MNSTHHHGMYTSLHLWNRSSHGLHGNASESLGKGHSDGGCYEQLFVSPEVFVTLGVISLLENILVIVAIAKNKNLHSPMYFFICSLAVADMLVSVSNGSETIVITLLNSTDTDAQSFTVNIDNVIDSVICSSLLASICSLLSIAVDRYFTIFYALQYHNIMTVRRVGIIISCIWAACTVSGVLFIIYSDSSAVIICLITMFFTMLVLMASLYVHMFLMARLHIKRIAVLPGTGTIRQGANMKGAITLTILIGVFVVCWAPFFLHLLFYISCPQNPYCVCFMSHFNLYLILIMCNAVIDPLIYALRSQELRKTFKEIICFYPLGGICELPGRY

Melanocortin receptor 4 [9] = target: T1, Melanocortin receptor 4; test: Agonist activity at human recombinant MC4 receptor expressed in BHK570 cells assessed as induction of […] accumulation relative to alpha-MSH in presence of 0.1% human serum albumin; type: functional, cell-based
[10] = Half life in human; type: ADME, organism-based; details: in vivo
[11] = Solubility of the compound at pH 3 to 8; type: physicochemical; details: buffer

Structure (SMILES) | EC50 (Melanocortin receptor 4 [1]) [nM] | Ki (Melanocortin receptor 4 [2]) [nM] | Ki (Melanocortin receptor 5) [nM] | pKa [6] | Ki (Melanocortin receptor 3) [nM] | Ki [7] [nM] | Activity [8] | Emax (Melanocortin receptor 4 [9]) [%] | half-life [10] [h] | Activity (Rattus norvegicus [3]) [%] | Activity (Rattus norvegicus [4]) [%] | Food intake relative to control (Rattus norvegicus [5]) [%] | solubility [11]
CCCC[C@H](NC(=O)[C@H](CO)NC(=O)[C@H](Cc1cnc[nH]1)NC(=O)[C@H](CCC(N)=O)NC(=O)[C@H](CO)NC(=O)CNC(=O)COCCOCCNC(=O)CCCCCCCCCCCCCCCc1nnn[nH]1)C(=O)N[C@H]1CCC(=O)NCCCC[C@@H](C(N)=O)NC(=O)[C@H](Cc2c[nH]c3ccccc23)NC(=O)[C@H](CCCNC(=N)N)NC(=O)[C@@H](Cc2ccccc2)NC(=O)[C@@H]2C[C@@H](O)CN2C1=O | 170 | 0.2 | 15 |  | 67 | 1200 |  |  |  | 56 | 79 | 92 | 
CCCC[C@H](NC(=O)[C@H](CCCNC(=N)N)NC(=O)[C@H](Cc1cnc[nH]1)NC(=O)[C@H](CCC(N)=O)NC(=O)[C@H](CO)NC(=O)CNC(=O)COCCOCCNC(=O)CCCCCCCCCCCCCCCc1nnn[nH]1)C(=O)N[C@H]1CCC(=O)NCCCC[C@@H](C(N)=O)NC(=O)[C@H](Cc2c[nH]c3ccccc23)NC(=O)[C@H](CCCNC(=N)N)NC(=O)[C@@H](Cc2ccccc2)NC(=O)[C@@H]2C[C@@H](O)CN2C1=O | 4.7 | 0.08 | 3 |  | 27 | 44 |  |  |  | 51 | 46 | 83 | 
CCCC[C@H](NC(=O)[C@H](CNC(=O)CN(CC(=O)O)CC(=O)O)NC(=O)[C@H](Cc1cnc[nH]1)NC(=O)[C@H](CCC(N)=O)NC(=O)[C@H](CO)NC(=O)CNC(=O)COCCOCCNC(=O)CCCCCCCCCCCCCCCc1nnn[nH]1)C(=O)N[C@H]1CCC(=O)NCCCC[C@@H](C(N)=O)NC(=O)[C@H](Cc2c[nH]c3ccccc23)NC(=O)[C@H](CCCNC(=N)N)NC(=O)[C@@H](Cc2ccccc2)NC(=O)[C@@H]2C[C@@H](O)CN2C1=O |  |  |  |  |  |  | Active | 85 |  | 39 | 53 | 66 | 
CCCC[C@H](NC(=O)[C@H](CN(C)C)NC(=O)[C@H](Cc1cnc[nH]1)NC(=O)[C@H](CCC(N)=O)NC(=O)[C@H](CO)NC(=O)CNC(=O)COCCOCCNC(=O)CCCCCCCCCCCCCCCc1nnn[nH]1)C(=O)N[C@H]1CCC(=O)NCCCC[C@@H](C(N)=O)NC(=O)[C@H](Cc2c[nH]c3ccccc23)NC(=O)[C@H](CCCNC(=N)N)NC(=O)[C@@H](Cc2ccccc2)NC(=O)[C@@H]2C[C@@H](O)CN2C1=O | 130 | 0.13 | 2.9 |  | 11 | 440 |  |  |  | 60 | 62 | 82 | 
CCCC[C@H](NC(C)=O)C(=O)N[C@H]1CC(=O)NCCCC[C@@H](C(=O)O)NC(=O)[C@H](Cc2c[nH]c3ccccc23)NC(=O)[C@H](CCCNC(=N)N)NC(=O)[C@@H](Cc2ccccc2)NC(=O)[C@H](Cc2c[nH]cn2)NC1=O [BREMELANOTIDE] |  |  |  |  |  | 6.4 |  |  | 2 | 91 | 23 | 100 | 
CCCCCCCCCCCCCCCC(=O)NCC(=O)NCC(=O)NCC(=O)NCC(=O)NCC(=O)N[C@@H](CCCC)C(=O)N[C@H]1CCC(=O)NCCCC[C@@H](C(N)=O)NC(=O)[C@H](Cc2c[nH]c3ccccc23)NC(=O)[C@H](CCCNC(=N)N)NC(=O)[C@@H](Cc2ccccc2)NC(=O)[C@@H]2C[C@@H](O)CN2C1=O | 1 | 0.33 | 3 |  | 8 | 130 |  |  |  | 76 | 110 | 94 | 
CCCC[C@H](NC(=O)[C@H](CNC(=O)CN(CC(=O)O)CC(=O)O)NC(=O)[C@H](Cc1cnc[nH]1)NC(=O)[C@H](CCC(N)=O)NC(=O)[C@H](CO)NC(=O)CNC(=O)COCCOCCNC(=O)CCCCCCCCCCCCCCCc1nnn[nH]1)C(=O)N[C@H]1CCC(=O)NCCCC[C@@H](C(N)=O)NC(=O)[C@H](Cc2c[nH]c3ccccc23)NC(=O)[C@H](CCCN=C(N)N)NC(=O)[C@@H](Cc2ccccc2)NC(=O)[C@@H]2C[C@@H](O)CN2C1=O | 88 |  | 13 |  | 71 |  |  |  |  |  |  |  | soluble

Continued, in another order:

EC50 (Melanocortin receptor 4 [1]) [nM] | Ki (Melanocortin receptor 4 [2]) [nM] | Ki (Melanocortin receptor 5) [nM] | pKa [6] | Ki (Melanocortin receptor 3) [nM] | Ki [7] [nM] | Activity [8] | Emax (Melanocortin receptor 4 [9]) [%] | half-life [10] [h] | Structure (SMILES) | Activity (Rattus norvegicus [3]) [%] | Activity (Rattus norvegicus [4]) [%] | Food intake relative to control (Rattus norvegicus [5]) [%] | solubility [11]
0.15 | 0.11 | 1.2 | 2 | 8.2 | 230 |  |  |  | CCCCCCCCCCCCCCCC(=O)NS(=O)(=O)CCCC(=O)NCC(=O)N[C@@H](CO)C(=O)N[C@@H](CCC(N)=O)C(=O)N[C@@H](Cc1cnc[nH]1)C(=O)N[C@@H](CO)C(=O)N[C@@H](CCCC)C(=O)N[C@H]1CCC(=O)NCCCC[C@@H](C(N)=O)NC(=O)[C@H](Cc2c[nH]c3ccccc23)NC(=O)[C@H](CCCNC(=N)N)NC(=O)[C@@H](Cc2ccccc2)NC(=O)[C@@H]2C[C@@H](O)CN2C1=O | 36 | 40 | 58 | 
0.17 | 0.12 | 1.6 |  | 2.5 | 8 |  |  |  | CCCCCCCCCCCCCCCC(=O)NCC(=O)N[C@@H](CO)C(=O)N[C@@H](CCC(N)=O)C(=O)N[C@@H](Cc1cnc[nH]1)C(=O)N[C@@H](CO)C(=O)N[C@@H](CCCC)C(=O)N[C@H]1CCC(=O)NCCCC[C@@H](C(N)=O)NC(=O)[C@H](Cc2c[nH]c3ccccc23)NC(=O)[C@H](CCCNC(=N)N)NC(=O)[C@@H](Cc2ccccc2)NC(=O)[C@@H]2C[C@@H](O)CN2C1=O | 58 | 63 | 81 | 
2 | 4.6 | 5.1 |  | 45 | 200 |  |  |  | CCCC[C@H](NC(=O)[C@H](CO)NC(=O)[C@H](Cc1cnc[nH]1)NC(=O)[C@H](CCC(N)=O)NC(=O)[C@H](CO)NC(=O)CNC(C)=O)C(=O)N[C@H]1CCC(=O)NCCCC[C@@H](C(N)=O)NC(=O)[C@H](Cc2c[nH]c3ccccc23)NC(=O)[C@H](CCCNC(=N)N)NC(=O)[C@@H](Cc2ccccc2)NC(=O)[C@@H]2C[C@@H](O)CN2C1=O | 99 | 55 | 103 | 
 |  |  |  |  |  | Active |  |  | CCCC[C@H](NC(=O)[C@H](CN)NC(=O)[C@H](Cc1cnc[nH]1)NC(=O)[C@H](CCC(N)=O)NC(=O)[C@H](CO)NC(=O)CNC(=O)COCCOCCNC(=O)CCCCCCCCCCCCCCCc1nnn[nH]1)C(=O)N[C@H]1CCC(=O)NCCCC[C@@H](C(N)=O)NC(=O)[C@H](Cc2c[nH]c3ccccc23)NC(=O)[C@H](CCCNC(=N)N)NC(=O)[C@@H](Cc2ccccc2)NC(=O)[C@@H]2C[C@@H](O)CN2C1=O | 45 | 49 | 73 | 
 |  |  |  |  |  | Active |  |  | CCCC[C@H](NC(=O)[C@@H](N)CNC(=O)[C@H](Cc1cnc[nH]1)NC(=O)[C@H](CCC(N)=O)NC(=O)[C@H](CO)NC(=O)CNC(=O)COCCOCCNC(=O)CCCCCCCCCCCCCCCc1nnn[nH]1)C(=O)N[C@H]1CCC(=O)NCCCC[C@@H](C(N)=O)NC(=O)[C@H](Cc2c[nH]c3ccccc23)NC(=O)[C@H](CCCNC(=N)N)NC(=O)[C@@H](Cc2ccccc2)NC(=O)[C@@H]2C[C@@H](O)CN2C1=O | 54 | 82 | 81 | 
0.04 | 0.37 | 0.47 |  | 2 | 3.2 |  |  |  | CCCCCCCCCCCCCCCC(=O)NCC(=O)N[C@@H](CO)C(=O)N[C@@H](CCC(N)=O)C(=O)N[C@@H](CCCCNC(=N)N)C(=O)N[C@@H](CO)C(=O)N[C@@H](CCCC)C(=O)N[C@H]1CCC(=O)NCCCC[C@@H](C(N)=O)NC(=O)[C@H](Cc2c[nH]c3ccccc23)NC(=O)[C@H](CCCNC(=N)N)NC(=O)[C@@H](Cc2ccccc2)NC(=O)[C@@H]2C[C@@H](O)CN2C1=O | 57 | 71 | 82 | 
 |  |  |  |  |  |  | 77 |  | CCCC[C@H](NC(=O)[C@H](CCC(=O)O)NC(=O)[C@H](CCCNC(=N)N)NC(=O)[C@H](CCC(=O)O)NC(=O)[C@H](CCC(=O)O)NC(=O)CNC(=O)COCCOCCNC(=O)CCCCCCCCCCCCCCCc1nnn[nH]1)C(=O)N[C@H]1CCC(=O)NCCCC[C@@H](C(N)=O)NC(=O)[C@H](Cc2c[nH]c3ccccc23)NC(=O)[C@H](CCCNC(=N)N)NC(=O)[C@@H](Cc2ccccc2)NC(=O)[C@@H]2C[C@@H](O)CN2C1=O | 90 | 74 | 98 | 
